Columns and labels:
[1] = target: T1, MAGI-1 PDZ domain 1 (interaction with HPV E6 protein) (Homo sapiens, UniProt Q96QZ7); experiment: matrix/array PDZ/PL competition assay, titration, Magi1 d1; type: binding; conditions: compared with the other PDZ domains and compounds of Table 1
T1 construct: MAGI-1 PDZ domain 1 was used as a target for rational drug design
Method: The best hits from in silico screening were subject to screening in a matrix/array competition assay format, i.e., assays where docking of ligands to solid phase PDZ domain in fusion proteins was assessed in the presence and absence of the small molecule competitor as described elsewhere. The compounds were screened for inhibition of the PDZ/PL interactions.
The small molecules were considered as hits based on the OD450 readout of the assay. The best of the hits in this analysis were then subject to titration binding studies, i.e., titration of compounds in the same competition assay to estimate the IC50 value.

3Y1 pBlast-E6-16 cells [2] = experiment: cell migration assay (96-well filter plate); type: cell-based, rat; conditions: 40 μM, 24 hours, OD560; compared with 3Y1 pBlast E6-16 ΔPL cells
Method: The effect of compound 7291-0042 on the rate of cell migration and proliferation was determined on three different cell lines, 3Y1 pBlast, 3Y1 pBlast-E6-16 and 3Y1 pBlast E6-16 ΔPL.
Plasmid constructs of HPV E6-16 (wild type) and HPV E6-16 ΔPL were generated using the vector pBlast (InvivoGen, Toulouse, France). Recombinant plasmids were generated by recombinant DNA cloning methods known in the art.
These constructs were transfected into rat 3Y1 primary cells using the LipofectAMINE™ 2000 Reagent (Invitrogen Cat#11668-027) and accompanying protocol. pBlast without insert was transfected as a negative control. Cells were incubated at 37° in RPMI media with non-essential amino acids, 10% FBS, and 1 ug/mL […] until confluent (about 4 days).
Each of the three transfected cell lines were seeded onto a 96-well filter plate with a feeder tray and lid in RPMI media with a gradient of 0.5% to 10% FBS and non-essential amino acids. Three different treatments were applied to the cell lines. The cells were treated with either 40 μM or 60 μM of the compound 7291-0042, or DMSO. […] The undersides of the filters were left uncoated. […] Cell migration through the membrane was quantified by staining the cells that attach to the lower side of the membrane with a colorometric dye at OD560 after 24 hours with a microplate reader.

3Y1 pBlast-E6-16 cells [3] = experiment: cell proliferation assay; type: cell-based, rat; conditions: 40 μM; compared with 3Y1 pBlast E6-16 ΔPL and 3Y1 pBlast
Method: Compound 7291-0042 was further analyzed for its ability to block the development of other cancerous characteristics in cells by a cell proliferation assay. The three cell lines described in the Example 2 were seeded onto a 12-well plate, and allowed to adhere and grow to confluent (about 24 hours) in EMEM media with 10% FBS and non-essential amino acids. 100 μl of compound 7291-0042 at concentrations 0 μM, 20 μM, 40 μM, and 80 μM was applied to the cells. The cells were measured at 24, 48, 72 and 96 hours after addition of the compound.

SiHa cells = experiment: WST-1 cytotoxicity assay, SiHa; type: cell-based; conditions: 60 μM, HPV-positive cervical cancer cell line
Method: (§1) To determine the cytotoxicity of the compound 7291-0042, drug toxicity studies were performed in HPV-positive (E6 transformed) cervical cancer cell lines SiHa and HeLa and HPV-negative cervical cancer cell line […]. […] and SiHa cells were seeded onto a 12-well plate, allowed to adhere and grown to 10,000 cells per well. HeLa cells were seeded, allowed to adhere and grown to 5,000 cells per well. 100 μl of compound 7291-0042 at a concentration of 60 μM or DMSO was added to the cells 24 hours after plating. Cytotoxicity of the cells was assessed by the WST-1 calorimetric assay. In brief, the calorimetric assay is based on the cleavage of the tetrazolium salt WST-1 to a formazan-class dye by mitochondrial succinate-tetrazolium reductase in viable cells. As the cells proliferate, more WST-1 is converted to the formazan product. The quantity of formazan dye is directly related to the number of metabolically active cells, and can be quantified by measuring the absorbance at 420-480 nm (Amax 450 nm) in a multiwell plate reader.

HeLa cells [4] = experiment: WST-1 cytotoxicity assay, HeLa; type: cell-based; conditions: 60 μM, HPV-positive cervical cancer cell line
Method: as §1

C33a cells [5] = experiment: WST-1 cytotoxicity assay, C33a; type: cell-based; conditions: 60 μM, HPV-negative cervical cancer cell line
Method: as §1

E6 protein (HPV18-E6) = experiment: E6 oncoprotein expression by Western blot in HeLa cells; type: cell-based; conditions: 60-120 μM, 24 hours, vs DMSO control and untreated cells
Method: To determine whether the compound 7291-0042 has an effect on E6 protein expression, cervical cancer cell line HeLa was used. HeLa cells were seeded, allowed to adhere and grown to 0.5×10^6 cells per well. Compound 7291-0042 at a concentration of 60 μM, 80 μM, 100 μM, 120 μM, or DMSO was added to the cells 24 hours after plating and incubated for 24 hours. Cells that were untreated served as an additional control. Western blot was performed to determine the relative amounts of the E6 protein present in the different samples. Briefly, the cells were homogenized in a lysate buffer and the protein samples were separated using SDS-PAGE and transferred to a membrane for detection. The membrane was incubated with an anti-HPV18-E6 antibody, labeled with a secondary antibody-enzyme conjugate and detected. To ensure that the amount of protein loaded for each sample was similar, the membrane was stripped and labeled with an antibody that recognizes a protein encoding a housekeeping gene. For this experiment, an antibody against glyceraldehyde-3-phosphate dehydrogenase (GAPDH) was used.

[6] = test system: p53 tumor suppressor protein; experiment: p53 protein expression by immunocytochemistry in HeLa cells; type: cell-based; conditions: 80-120 μM, 24 hours, vs DMSO control
Method: To determine whether the compound 7291-0042 has an effect on p53 protein expression, cervical cancer cell line HeLa was used. HeLa cells were seeded, allowed to adhere and grown to 0.5×10^6 cells per well. 1 ml of compound 7291-0042 at a concentration of 80 μM, 100 μM, 120 μM, or DMSO was added to the cells 24 hours after plating and incubated for 24 hours. Immunocytochemistry with anti-p53 monoclonal antibody was performed to determine the relative amounts of the p53 protein present in the different cell samples.

HeLa cells [7] = experiment: TUNEL apoptosis assay, HeLa; type: cell-based; conditions: 120 M (so in the source), 48 hours, flow cytometry
Method: (§2) To determine whether the compound 7291-0042 induces apoptosis in HPV-positive cervical cancer cell lines, HeLa cells and the HPV-negative cell line C33A were used. HeLa and C33A cells were seeded at 1-2×10^6 in 10-cm dishes and allowed to adhere and grow to 80-90% confluency. Compound 7291-0042 at a concentration of 60 μM, 80 μM, 100 μM, 120 μM, or DMSO was added to the cells 24 hours after plating and incubated for 48 hours. TUNEL assay was performed for the specific quantitation of apoptotic cells within a cell population using the DeadEnd Fluorometric TUNEL System from Promega (Madison, Wis.). Briefly, the cells were harvested by trypsinization and washed in PBS. Cells were then fixed in 4% formalin and incubated in buffer containing nucleotides and rTdT enzyme for 1 hour at 37° C. After terminating the reaction by adding EDTA, cells were washed with PBS and permeabilized with Triton X-100 and propidium iodide was added to stain all the cells. Cells were then analyzed by flow cytometery. Apoptosis signal was quantified by measuring green fluorescence of fluorescein-12-dUTP at 520±20 nm and red fluorescence of propidium iodide at >620 nm.

C33a cells [8] = experiment: TUNEL apoptosis assay, C33A; type: cell-based; conditions: 120 M (so in the source), 48 hours, flow cytometry
Method: as §2

T1 sequence (Q96QZ7 472-554 limits assumed): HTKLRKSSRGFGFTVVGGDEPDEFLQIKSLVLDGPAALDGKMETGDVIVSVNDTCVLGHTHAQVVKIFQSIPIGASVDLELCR

## CCc1cccc2c(C(c3ccccc3OCC(=O)O)c3c[nH]c4c(CC)cccc34)c[nH]c12 [7291-0042]
[1]
  specificity of disruption of the interaction between HPV E6 protein and MAGI-1 PDZ1: greatest specificity
3Y1 pBlast-E6-16 cells [2]
  rate of cell migration: restored baseline cell migration
3Y1 pBlast-E6-16 cells [3]
  rate of cell proliferation: restored baseline rate of cell proliferation
SiHa cells
  cytotoxicity, SiHa cells: selectively killed
HeLa cells [4]
  cytotoxicity, HeLa cells: selectively killed
C33a cells [5]
  cytotoxicity, C33a cells: remained viable
E6 protein (HPV18-E6)
  amount of E6 onco protein: decreased
[6]
  amount of p53 tumor suppressor protein: increased
HeLa cells [7]
  apoptotic cells, HeLa: 20%
C33a cells [8]
  apoptotic cells, C33A: 4%
